Source: US20210284621A1 (priority 2018, published 2021)
“Also recorded” adds a separate entry of the source. Like-named read-outs stand apart in the source and are kept apart here.

Columns and labels:
[1] = Pharmacokinetics after IV dose in mice; conditions: in vivo, 1 mg/kg IV, male C57BL/6 mice; for AUC(0-t): male, C57BL/6, mouse, iv, 1 mg/kg; for AUC(0-inf) / C0 / MRT inf / clearance / half-life / Vd: mouse; for Vd: read-out: Vss
Procedure: Male C57BL/6 mice were administered an intravenous (IV) dose of 1 mg/kg of the indicated compound.

[2] = Pharmacokinetics after PO dose in mice; type: in vivo, Male C57BL/6 mice; conditions: 10 mg/kg PO; for AUC(0-inf) / Cmax / MRT inf / Tmax / half-life / AUC(0-t): male, C57BL/6, mouse, in vivo; for AUC(0-t): read-out: AUC0-24 hr
CB1 receptor [3] = biological target: T1, CB1 receptor (Homo sapiens, UniProt P21554); experiment: CB1 competitive radioligand binding assay ([3H] SR141716A); design: expressed in transfected cells; host or cells: Chem-1 cells; conditions: for inhibition at 0.5 µM: 0.5 μM compound, 2.0 nM [3H] SR141716A, 90 min 37° C.
Method in brief: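 Chem-1 cells expressing human recombinant CB1 incubated 90 min at 37° C with 2.0 nM [3H]SR141716A and compound at 0.5 μM (1% DMSO) in HEPES pH 7.4 buffer with MgCl2, CaCl2, 0.2% BSA. Read-out is % inhibition of radioligand binding.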

CB1 receptor [4] = biological target: T1, CB1 receptor; experiment: cell-based; design: host or cells: PathHunter cell lines
CB2 receptor [5] = biological target: T2, CB2 receptor (Homo sapiens, UniProt P34972); experiment: cell-based; design: host or cells: cAMP Hunter cell lines
Method in brief: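 PathHunter β-Arrestin enzyme fragment complementation cells, EA-tagged β-Arrestin and PK-tagged receptor, exposed to compound for 90 to 180 minutes at 37° C. or room temperature, 1% vehicle. Chemiluminescence read 1 h after detection reagent; agonist % activity relative to vehicle and MAX control ligand.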

CB2 receptor [6] = biological target: T2, CB2 receptor; experiment: cAMP Assay #2: Hit Hunter cAMP assay, Gi-coupled agonist activity, CB2; type: cell-based; design: host or cells: cAMP Hunter cell lines; conditions: for CB2 fold selectivity: CB1 EC50 / CB2 EC50
[7] = system: 12 systems of human primary cells; experiment: BioMAP Diversity PLUS phenotypic screen; type: cell-based; conditions: 3.3 μM; for Anti-proliferation: cell type in which anti-proliferative effect was seen; for Immune modulation, cell surface and tissue remodeling biomarkers: changes at least 1.5-fold from vehicle control
Procedure: Compounds of the invention were assayed for their effects on 148 biomarkers of inflammation, immune modulation and tissue remodeling in the BioMAP® Diversity PLUS® (DiscoverX) platform designed to model aspects of human diseases in vitro (Kunkel 2004, Berg 2006, Melton 2013).
The example compounds (3.3 μM) in Table 8 induced increases or decreases in the levels of the indicated 20 biomarkers, which are at least 1.5-fold change from vehicle control and are outside the significance prediction envelop. All compounds presented in Table 8 were not cytotoxic at the concentration tested.

[8] = Table 2, read-out: CB1 Binding Ki
[9] = PathHunter agonist mode, read-out: CB1 Activity (β-Arrestin)
[10] = PathHunter agonist mode, read-out: CB2 Activity (β-Arrestin)
[11] = Hit Hunter cAMP, 25 μM forskolin, control ligand CP55,940, read-out: CB2, EC50

T2 sequence (P34972 whole entry, the tested form may be a part): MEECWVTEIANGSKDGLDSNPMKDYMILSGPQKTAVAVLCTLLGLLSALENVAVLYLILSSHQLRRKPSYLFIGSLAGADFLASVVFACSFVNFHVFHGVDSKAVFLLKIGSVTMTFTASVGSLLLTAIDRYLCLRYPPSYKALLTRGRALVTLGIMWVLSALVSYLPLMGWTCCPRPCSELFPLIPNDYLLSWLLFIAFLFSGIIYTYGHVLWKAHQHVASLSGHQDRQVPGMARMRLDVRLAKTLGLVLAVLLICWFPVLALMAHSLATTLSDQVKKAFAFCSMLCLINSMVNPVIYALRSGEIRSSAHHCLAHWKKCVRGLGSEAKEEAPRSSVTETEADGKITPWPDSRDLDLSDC
T1 sequence (P21554 whole entry): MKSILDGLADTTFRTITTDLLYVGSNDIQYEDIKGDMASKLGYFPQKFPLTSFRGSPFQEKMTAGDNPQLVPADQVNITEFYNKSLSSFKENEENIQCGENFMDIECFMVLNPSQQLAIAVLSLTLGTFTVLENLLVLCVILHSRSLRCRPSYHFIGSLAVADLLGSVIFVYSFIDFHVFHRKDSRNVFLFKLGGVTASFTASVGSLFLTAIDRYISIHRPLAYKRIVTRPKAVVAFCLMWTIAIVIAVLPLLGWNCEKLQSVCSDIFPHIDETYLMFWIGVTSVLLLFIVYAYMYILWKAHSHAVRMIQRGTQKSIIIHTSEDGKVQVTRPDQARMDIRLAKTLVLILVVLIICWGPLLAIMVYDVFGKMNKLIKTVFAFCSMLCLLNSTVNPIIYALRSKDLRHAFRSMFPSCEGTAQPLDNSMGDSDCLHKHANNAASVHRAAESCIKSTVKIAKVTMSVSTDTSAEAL

Row | Compound | AUC(0-t) ([1]; read-out: AUC0-24 hr) [ng·h/mL] | AUC(0-t) ([1]; read-out: AUClast) [ng·h/mL] | AUC(0-inf) [1] [ng·h/mL] | C0 [1] [ng/mL] | MRT inf [1] [h] | clearance [1] [mL/min/kg] | half-life [1] [h] | Vd [1] [L/kg] | F [2] [%] | Tlag [2] [h] | AUC(0-inf) [2] [ng·h/mL] | Cmax [2] [ng/mL] | MRT inf [2] [h] | Tmax [2] [h] | half-life [2] [h] | AUC(0-t) [2] [ng·h/mL] | inhibition at 0.5 µM (CB1 receptor [3]) [%] | CB2 fold selectivity (CB2 receptor [6]; Hit Hunter cAMP) | EC50 (CB1 receptor [4]; [9]) [nM] | EC50 (CB2 receptor [5]; [10]) [nM] | further results
1 | CCCCCCC(C)(C)c1cc(O)c2c(c1)OC(C)(C)[C@@H]1CC=C(C(=O)O)C[C@@H]21 [AJA, (6aR,10aR)-1-hydroxy-6,6-dimethyl-3-(2-methyl-2-octanyl)-6a,7,10,10a-tetrahydro-6H-benzo[c]chromene-9-carboxylic acid, reference compound] | 2770 | 2420 | 2510 | 1750 | 1.89 | 6.67 | 1.41 | 0.75 | 70.79 | 0 | 17800 | 3860 | 3.42 | 1 | 2.19 | 17800 | -1 | 11.0 |  |  | Ki (CB1 receptor [3]): > 3000 nM; EC50 (CB1 receptor [4]): 1240 nM; EC50 (CB2 receptor [5]): 11 nM; EC50 (CB2 receptor [6]): 7 nM
2 | CCCCCCC(C)(C)c1cc(O)c2c(c1)OC(C)(C)[C@@H]1CC=C(C(=O)NC[C@@H](O)CO)C[C@@H]21 [Compound 55, (6aR,10aR)-N—((R)-2,3-Dihydroxypropyl)-1-hydroxy-6,6-dimethyl-3-(2-methyloctan-2-yl)-6a,7,10,10a-tetrahydro-6H-benzo[c]chromene-9-carboxamide] | 2360 | 2360 | 2380 | 3060 | 3.38 | 7.02 | 3.99 | 1.42 | 30.33 | 0 | 7200 | 882 | 6.4 | 1 | 2.72 | 7170 |  | 30.5 | > 3000 | 6.9 | Anti-proliferation [7]: Dermal fibroblasts; Ki (CB1 receptor [3]; [8]): 619 nM; EC50 (CB2 receptor [6]; [11]): 5.7 nM
3 | CCCCCCC(C)(C)c1cc(O)c2c(c1)OC(C)(C)[C@@H]1CC=C(C(=O)NC[C@H](O)CO)C[C@@H]21 [Compound 56, (6aR,10aR)-N—((S)-2,3-Dihydroxypropyl)-1-hydroxy-6,6-dimethyl-3-(2-methyloctan-2-yl)-6a,7,10,10a-tetrahydro-6H-benzo[c]chromene-9-carboxamide] | 2080 | 1790 | 1920 | 2790 | 2.3 | 8.7 | 2.39 | 1.2 | 23.11 | 0 | 4430 | 902 | 4.89 | 1 | 2.63 | 4420 |  | 30.0 | > 3000 | 6.9 | Ki (CB1 receptor [3]; [8]): 708 nM; EC50 (CB2 receptor [6]; [11]): 8.4 nM
4 | CCCCCCC(C)(C)c1cc(O)c2c(c1)OC(C)(C)[C@@H]1CC=C(C(=O)OC(C)C)C[C@@H]21 [Compound 29, Isopropyl (6aR,10aR)-1-hydroxy-6,6-dimethyl-3-(2-methyloctan-2-yl)-6a,7,10,10a-tetrahydro-6H-benzo[c]chromene-9-carboxylate] | 3550 | 3550 | 3570 | 17500 | 1.53 | 4.67 | 4.89 | 0.43 | 3.98 | 0.00 | 1420 | 203 | 6.2 | 6 | 4.21 | 1400 | 65 | 9.6 | 47 | 3 | Anti-proliferation [7]: Dermal fibroblasts; Immune modulation, cell surface and tissue remodeling biomarkers [7]: Reduced Eotaxin-3, IL-8, E-selectin, P-selectin, VCAM, EGFR,; also recorded: IL-1α, IP-10, and PAI-I; EC50 (CB2 receptor [6]): 1 nM
5 | CCCCCCC(C)(C)c1cc(O)c2c(c1)OC(C)(C)[C@@H]1CC=C(C(=O)NC(C)(C)CCO)C[C@@H]21 [Compound 15, (6aR,10aR)-1-Hydroxy-N-(4-hydroxy-2-methylbutan-2-yl)-6,6-dimethyl-3-(2-methyloctan-2-yl)-6a,7,10,10a-tetrahydro-6H-benzo[c]chromene-9-carboxamide] | 1720 | 1510 | 1570 | 1840 | 2.16 | 10.6 | 1.74 | 1.37 | 37.4 | 0.00 | 5890 | 779 | 5.07 | 4 | 2.65 | 5870 | 16 | 164.1 | > 3000 | > 3000 | Ki (CB1 receptor [3]; [8]): 660 nM; EC50 (CB2 receptor [6]; [11]): 2.7 nM
6 | CCCCCCC(C)(C)c1cc(O)c2c(c1)OC(C)(C)[C@@H]1CC=C(C(=O)NC(CO)CO)C[C@@H]21 [Compound 25, (6aR,10aR)-N-(1,3-Dihydroxypropan-2-yl)-1-hydroxy-6,6-dimethyl-3-(2-methyloctan-2-yl)-6a,7,10,10a-tetrahydro-6H-benzo[c]chromene-9-carboxamide] |  |  |  |  |  |  |  |  |  |  |  |  |  |  |  |  | 29 | 40.0 | > 3000 | 10 | Anti-proliferation [7]: Dermal fibroblasts; Immune modulation, cell surface and tissue remodeling biomarkers [7]: Reduced VCAM-1, PAI-I, IL-10, and M-CSF; increased MMP-1; Ki (CB1 receptor [3]; [8]): 316 nM; EC50 (CB2 receptor [6]; [11]): 9 nM
